Values after ≈ are worked out from the molar mass of the structure shown. Read-outs that look alike come from different tables or passages of the source.
Experiment: Solubility of volatile organic halide in carbonic acid aqueous solution (Example 3)
Assay type: physicochemical
Details: for solubility at 24 h: 20.7 °C, thermodynamic from solid, read-out: Detected amount of trichloroethylene (saturated solubility)
Protocol: Using a carbonic acid aqueous solution having carbonated ion-concentration of 7,700 mg/L (i.e., 7,700 ppm) and natural water (trade name: Eapin; carbonated ion-concentration of 0 mg/L), four kinds of carbonic acid aqueous solutions (i.e., carbonated ion-concentration: 340 mg/L, 920 mg/L, 1700 mg/L and 7,700 mg/L) were prepared.
Using a syringe, 0.14 g of excess trichloroethylene was added to the water or solution, and each linked part in the Glass-Vials was sealed by the use of Teflon tape. The mixture was stirred for 30 minutes using a magnetic stirrer, and allowed to stand for 24 hours. Thereafter, a supernatant fraction was quickly collected and extracted to give trichloroethylene. These procedures were performed at temperature of 20.7° C.
As for the above natural water and carbonic acid aqueous solutions before the injection into the glass-bialbin, their carbonated ion-concentrations were measured by means of neutralization titration. The titration was conducted according to strontium chloride/monobasic acid-base titration described in JIS K 0101 25.
To the supernatant fraction obtained above, n-hexane for test of remaining agriculture chemical was added in the same amount as the fraction, and vigorously stirred to give an n-hexane layer. The layer was analyzed by a gas chromatography in the following conditions:
Analyzer: GC-17A type available from Shimadzu Corp.
Column: AQUATAC 75 m×0.53 mmφ
Column Temperature: 210° C.

Structure (SMILES): ClC=C(Cl)Cl [trichloroethylene]
- solubility at 24 h (aqueous buffer, Carbonated ion concentration 340 mg/L): 780 µg/mL (≈ 5.94 mM)
- solubility at 24 h (aqueous buffer, Carbonated ion concentration 920 mg/L): 1000 µg/mL (≈ 7.61 mM)
- solubility at 24 h (aqueous buffer, Carbonated ion concentration 7700 mg/L): 1300 µg/mL (≈ 9.89 mM)
- Detected amount of trichloroethylene (saturated solubility) (Carbonated ion concentration 1700 mg/L, 20.7° C.): 1100 mg/L
- solubility at 24 h (natural water (Eapin; carbonated ion concentration 0 mg/L), water, Carbonated ion concentration 0 mg/L (natural water)): 750 µg/mL (≈ 5.71 mM)

Source: patent US6379083B1, “Method for the remediation of soil contaminated with organic halide compounds” (Hazama Corporation, priority 1998, dated 2002)
